Experimental data as given in PubChem BioAssay (NCI).
Where “and” joins values, the source holds several entries; their conditions need not be identical. Equal entries are not always repeated.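 Briefly, cells in 96-well plates were exposed to five compound concentrations for 48 h, and endpoints were estimated by linear interpolation. GI50 = concentration required for 50% inhibition of growth. Definition used: TGI = concentration required for complete inhibition of growth.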

Columns and labels:
Assay in all cases: NCI anticancer screen, dose series, 48 h
A498 renal = test system: A498 renal
HOP-62 NSCLC = test system: HOP-62 NSCLC
SK-MEL-28 melanoma = test system: SK-MEL-28 melanoma
SK-MEL-2 melanoma = test system: SK-MEL-2 melanoma
OVCAR-3 ovarian = test system: OVCAR-3 ovarian
LOX IMVI melanoma = test system: LOX IMVI melanoma
MDA-MB-435 = test system: MDA-MB-435
SR leukemia = test system: SR leukemia
HCC-2998 colon = test system: HCC-2998 colon
MDA-N = test system: MDA-N
OVCAR-8 ovarian = test system: OVCAR-8 ovarian

Row | Structure (SMILES) | TGI (A498 renal) [µM] | TGI (HOP-62 NSCLC) [µM] | TGI (SK-MEL-28 melanoma) [µM] | TGI (SK-MEL-2 melanoma) | TGI (OVCAR-3 ovarian) [µM] | TGI (LOX IMVI melanoma) [µM] | TGI (MDA-MB-435) [µM] | TGI (SR leukemia) [µM] | TGI (HCC-2998 colon) | TGI (MDA-N) [µM] | TGI (OVCAR-8 ovarian) | GI50 (A498 renal) | GI50 (HOP-62 NSCLC) | GI50 (SK-MEL-28 melanoma) [µM] | GI50 (SK-MEL-2 melanoma) [µM] | GI50 (OVCAR-3 ovarian) | GI50 (LOX IMVI melanoma) [µM] | GI50 (SR leukemia) [µM] | GI50 (OVCAR-8 ovarian) [µM]
1 | CC(=O)[C@H]1[C@@H](OCc2ccccc2)O[N+]([O-])=C(C)[C@@H]1c1ccccc1 | > 100 | > 100 | 98.4 | > 100 µM | 57.7 | 45.7 | > 100 | 42 | > 100 µM | > 100 | > 100 µM | – | – | – | – | – | – | – | –
2 | C=CCN1C(=O)/C(=C/c2ccccc2)N=C1SC1OC(COC(C)=O)C(OC(C)=O)C(OC(C)=O)C1OC(C)=O (stereo unspecified) | 99.7 | > 100 | 76.6 | 48.8 µM | 45.8 | > 100 | > 100 | > 100 | > 100 µM | > 100 | 95.5 µM | – | – | – | – | – | – | – | –
3 | CC(=O)c1c2c(cc3c1CC1(C3)Cc3ccc4c(c3C1=O)CCC4)CCC2 (stereo unspecified) | > 100 | > 100 | > 100 | > 100 µM | > 100 | > 100 | 32.8 | 64 | > 100 µM | > 100 | > 100 µM | – | – | – | – | – | – | – | –
4 | O=S(=O)(c1ccccc1)[C@@H]1[C@H]2C=C[C@](CS)(O2)[C@H]1S(=O)(=O)c1ccccc1 | > 100 | > 100 | > 100 | – | 63.5 | > 100 | > 100 | > 100 | > 100 µM | > 100 | > 100 µM | – | – | – | – | – | – | – | –
5 | CCOC(=O)C(Cc1ccc2c(c1)CCC2)Cc1ccc2c(c1)CCC2 | > 100 | > 100 | > 100 | > 100 µM | > 100 | 47.8 | > 100 | 60.1 | > 100 µM | > 100 | > 100 µM | – | – | – | – | – | – | – | –
6 | COC(=O)CCN1CCN(CCO)CC1C (stereo unspecified) | > 10 | > 10 | > 10 | > 10 µM | > 10 | > 10 | > 10 | > 10 | > 10 µM | > 10 | > 10 µM | – | – | – | – | – | – | – | –
7 | COc1cc(CCC(=O)O)c2cc3ccccc3cc2c1O | 99.5 | 32.7 | 48.4 | 36.6 µM | 51.7 | 53.5 | 34.4 | 33.1 | 65.2 µM | 32.5 | 30.6 µM | – | – | – | – | – | – | – | –
8 | S=C1NCCN1C(=S)NC1CCCCC1 | 38.7 | > 100 | > 100 | 96 µM | > 100 | > 100 | 67.6 | > 100 | 42.3 µM | > 100 | > 100 µM | – | – | – | – | – | – | – | –
9 | N#CC12CC=C(c3ccccc3)N=C1NC(c1ccccc1)=CC2 (stereo unspecified) | 97 | > 100 | > 100 | > 100 µM | > 100 | > 100 | > 100 | 82.2 | > 100 µM | > 100 | > 100 µM | – | – | – | – | – | – | – | –
10 | O=[N+]([O-])c1ccc(/C=N/n2c(CCc3n[nH]c(=S)n3/N=C/c3ccc([N+](=O)[O-])o3)n[nH]c2=S)o1 | > 100 | 69.8 | 31.5 | 42.9 µM | 54.2 | 50.6 | 35.3 | 80.7 | 33 µM | 26.7 | > 100 µM | – | – | – | – | – | – | – | –
11 | Cc1cc(CN(Cc2ccccc2)Cc2nc3ccccc3[nH]2)c(O)c(CN(Cc2nc3ccccc3[nH]2)Cc2nc3ccccc3[nH]2)c1 | > 48.6 | 35.3 | > 100 | 36.1 µM | 63.5 | 13.3 | 36.1 | > 25.3 | 38 µM | 29 | > 100 µM | – | – | – | – | – | – | – | –
12 | CC12OC3(C(O)C1O)C(C(=O)O[C@H]3CO[Si](C)(C)C(C)(C)C)C2S(=O)(=O)c1ccccc1 (stereo partly specified) | > 100 | > 100 | > 100 | > 100 µM | > 100 | 46.8 | > 100 | 87.5 | – | > 100 | > 100 µM | – | – | – | – | – | – | – | –
13 | Cn1c2c(c3ccccc31)CC(=O)N1CCCC(C1)CC21OCCO1 (stereo unspecified) | > 100 | > 100 | > 100 | > 100 µM | > 100 | > 100 | > 100 | > 100 | > 100 µM | > 100 | > 100 µM | – | – | – | – | – | – | – | –
14 | [O-]/N=N\c1on[n+](CCc2ccccc2)c1Cc1c(/N=N/[O-])on[n+]1CCc1ccccc1 | > 100 | 48.3 | > 100 | 94 µM | 39.8 | > 100 | > 100 | > 100 | > 100 µM | > 100 | 46.4 µM | – | – | – | – | – | – | – | –
15 | CC(C)[Si](Oc1cc2c3c(ccc2c(O)c1[C@@H](C)CO[Si](C)(C)C(C)(C)C)C(C)(C)CCC3)(C(C)C)C(C)C | > 100 | > 100 | > 100 | > 100 µM | > 100 | > 100 | > 100 | > 100 | – | > 100 | > 100 µM | – | – | – | – | – | – | – | –
16 | COc1cccc2c1C(=O)c1c(O)c3c(c(O)c1C2=O)C[C@@](O)(C(C)=O)C[C@@H]3OC1CC(N(C)C)C(O)C(C)O1 (stereo partly specified) | – | – | – | 0.308 µM and 0.0915 µM | – | – | 0.00234 | – | 0.27 µM and 0.205 µM | 0.00154 | 2.8 µM and 3.75 µM | 0.139 µM and 0.0466 µM | 0.117 µM and < 0.0167 µM | 0.0475 | < 0.0113 | 0.108 µM and 0.155 µM | 0.00387 | 0.00237 | 0.00719
17 | O=CNNC(=O)CSc1nc2ccc(I)cc2c(=O)n1Cc1ccccc1 | > 100 | > 100 | > 100 | 44.4 µM | 50.2 | 69.1 | > 100 | > 100 | 81.6 µM | > 100 | > 100 µM | – | – | – | – | – | – | – | –
